From patent publication US12329739B2, “Isoflavonoid compounds and methods for the treatment of cancer” (Aardvark Therapeutics, Inc., priority 2010, dated 2025)

Columns and labels:
A2780 = experiment: MTT proliferation assay, A2780; assay type: cell-based; conditions: Ovarian, A2780, 120 h of exposure
Protocol: (§1) Proliferation Assays. IC50 values were determined for each cell line. Cells were seeded in 96-well plates at an appropriate cell density as determined from growth kinetics analysis and cultured for 5 days in the absence and presence of the test compounds. Cell proliferation was assessed after the addition of 20 μl of 3-4,5 dimethylthiazol-2,5-diphenyl tetrazolium bromide (MTT, 5 mg/ml in PBS, Sigma) for 5 hrs at 37° C. according to manufacturer's instructions. IC50 values were calculated from semi-log plots of % of control proliferation on the y-axis against log dose on the x-axis.
(§2) Anti-proliferative Activity of Isoflavonoid Derivatives. IC50 values were determined for each cell line after 120 h of exposure.

R-182 = experiment: MTT proliferation assay, R-182; assay type: cell-based; conditions: Ovarian, R-182, 120 h of exposure
Text: Tissue culture. The multidrug resistant primary epithelial ovarian cancer cell line R-182 TARA was a gift from Dr. Gil Mor (Yale University, New Haven, CT, USA). This cell line was derived by explant from ovarian tumors and cultured as previously described. All other cell lines were purchased from American Type Culture Collection (ATCC, Manassas, VA, USA) with the exception of MKN1, HuH-7, JHH-1, which were purchased from the Japanese Collection of Research Bioresources (JCRB, Osaka, Japan), and OE19 which was purchased from the European Collection of Cell Cultures (ECACC, Salisbury, UK).
as §1, §2

PC3 = experiment: MTT proliferation assay, PC3; assay type: cell-based; conditions: Prostate, PC3, 120 h of exposure
Protocol: as §1, §2

MDA-MB-468 = experiment: MTT proliferation assay, MDA-MB-468; assay type: cell-based, human; conditions: Breast, MDA-MB-468, 120 h of exposure
Protocol: The human gastric cancer cell line AGS (CRL-1739) was cultured in Hams F-12K (Kaighans modification) medium containing 2 mM L-glutamine, 2.5 g/L sodium bicarbonate and 2 mM sodium pyruvate. The human breast adenocarcinoma line MDA-MB-468 (HTB-132) was cultured in DMEM:F12 (1:1) medium containing 2.5 mM L-glutamine, 2.4 g/L sodium bicarbonate, supplemented with an additional 2 mM L-glutamine.
as §1, §2

CALU3 = experiment: MTT proliferation assay, CALU3; assay type: cell-based; conditions: NSCLC, CALU3, 120 h of exposure
Protocol: as §1, §2

A549 = experiment: MTT proliferation assay, A549; assay type: cell-based; conditions: NSCLC, A549, 120 h of exposure
Protocol: as §1, §2

HepG2 = experiment: MTT proliferation assay, HepG2; assay type: cell-based, human; conditions: Liver, HepG2, 120 h of exposure
Protocol: (§3) The human hepatocellular carcinoma lines HepG2 (HB-8065), SK-HEP-1 (HTB-52) and the normal human lung fibroblast line IMR-90 (CCL-186) were cultured in Minimum Essential Eagles Medium containing 2 mM L-glutamine, 2.2 g/L sodium bicarbonate, supplemented with 1 mM sodium pyruvate and 0.1 mM non-essential amino acids. The human hepatocellular carcinoma line JHH-1 (JCRB1062) was cultured in Williams E Medium (Invitrogen) containing 2.2 g/L sodium bicarbonate, supplemented with 2 mM L-glutamine. The hepatocellular carcinoma line HuH-7 (JCRB0403) was cultured in DMEM, supplemented with 2 mM L-glutamine.
as §1, §2

LNCaP = experiment: MTT proliferation assay, LNCaP; assay type: cell-based; conditions: Prostate, 120 h of exposure
Protocol: as §1, §2

A2058 = experiment: MTT proliferation assay, A2058; assay type: cell-based; conditions: Melanoma, A2058, 120 h of exposure
Protocol: as §1, §2

CP70 = experiment: MTT proliferation assay, CP70; assay type: cell-based; conditions: Ovarian, CP70, 120 h of exposure
Protocol: as §1, §2

DU145 = experiment: MTT proliferation assay, DU145; assay type: cell-based; conditions: Prostate, DU145, 120 h of exposure
Protocol: as §1, §2

SK-Hep-1 = experiment: MTT proliferation assay, SK-Hep-1; assay type: cell-based, human; conditions: Liver, SK-Hep-1, 120 h of exposure
Protocol: as §3, §1, §2

HuH-7 = experiment: MTT proliferation assay, HuH-7; assay type: cell-based, human; conditions: Liver, HuH-7, 120 h of exposure
Protocol: as §3, §1, §2

NCI-H460 = experiment: MTT proliferation assay, NCI-H460; assay type: cell-based, human; conditions: NSCLC, NCI-H460, 120 h of exposure
Protocol: (§4) The human non-small cell lung adenocarcinoma lines NCI-H1299 (CRL-5803), NCI-H460 (HTB-177), NCI-H358 (CRL-5807), NCI-H838 (CRL-5844), the human colorectal adenocarcinoma lines COLO 205 (CCL-222), HCT-15 (CCL-225) and the human gastric cancer cell line NCI-N87 (CRL-5822) were cultured in RPMI 1640 medium containing 2 g/L sodium bicarbonate (Hyclone/Invitrogen) supplemented with 2 mM L-glutamine (Gibco) 1 mM sodium pyruvate (Sigma), 10 mM HEPES (Sigma) and 4500 mg/L glucose (Sigma). The human non-small cell lung adenocarcinoma line NCI-H2126 (CCL-256) was cultured in DMEM:F12(1:1) (Hyclone/Invitrogen) containing 2.5 mM L-glutamine 2.4 g/L sodium bicarbonate supplemented with 5% fetal bovine serum (FBS), an additional 2 mM L-glutamine, 15 mM HEPES, 0.005 mg/ml insulin (Sigma), 0.01 mg/ml transferrin (Sigma), 30 nM sodium selenite (Sigma), 10 nM hydrocortisone (Sigma) and 10 nM beta-estradiol (Sigma). The human colorectal adenocarcinoma line HT-29 (HTB-38) and the human gastric cancer cell lines OE-19 (#96071721) and MKN1 (JCRB0252) were cultured in RPMI 1640 media supplemented with 2 mM L-glutamine.
as §1, §2

4405 = experiment: MTT proliferation assay, 4405; assay type: cell-based; conditions: Melanoma, 4405, 120 h of exposure
Protocol: as §1, §2

COLO205 = experiment: MTT proliferation assay, COLO205; assay type: cell-based, human; conditions: CRC, COLO205, 120 h of exposure
Protocol: as §4, §1, §2

SKBR-3 = experiment: MTT proliferation assay, SKBR-3; assay type: cell-based, human; conditions: Breast, SKBR-3, 120 h of exposure
Protocol: The human colorectal adenocarcinoma line HCT-116 (CCL-247) and the human breast adenocarcinoma line SK-BR-3 (HTB-30) were cultured in McCoy's 5a Medium (Invitrogen) containing 1.5 mM L-glutamine and 2.2 g/L sodium bicarbonate. The human colorectal adenocarcinoma line SW620 (CCL-227) was cultured in Leibovitz's L-15 Medium (Invitrogen) containing 2.05 mM L-glutamine.
as §1, §2

MM200 = experiment: MTT proliferation assay, MM200; assay type: cell-based; conditions: Melanoma, MM200, 120 h of exposure
Protocol: as §1, §2

[1] = Homo sapiens, MDA-MB-468, 120 h

Row | SMILES | IC50 (R-182) [nM] | IC50 4405 [nM] | IC50 (A2780; Homo sapiens, A2780, 120 h) [nM] | IC50 (SKBR-3; Homo sapiens, SK-BR-3, 120 h) [nM] | IC50 (PC3; Homo sapiens, PC-3, 120 h) [nM] | IC50 (MM200) [nM] | IC50 (MDA-MB-468; [1]) [nM] | IC50 (CALU3; Homo sapiens, Calu-3) [nM] | IC50 (A549; Homo sapiens) [nM] | IC50 (HepG2; Homo sapiens) [nM] | IC50 (LNCaP; Homo sapiens) [nM] | IC50 (A2058; Homo sapiens, A2058, 120 h) [nM] | IC50 (CP70; 120 h) [nM] | IC50 (DU145; Homo sapiens, DU-145) [nM] | IC50 (SK-Hep-1; Homo sapiens, SK-HEP1) [nM] | IC50 (HuH-7; Homo sapiens) [nM] | IC50 (NCI-H460; Homo sapiens) [nM] | IC50 (COLO205; Homo sapiens, COLO 205) [nM] | also measured
1 | Cc1cc([C@H]2c3ccc(O)c(C)c3OC[C@H]2c2ccc(O)cc2)ccc1O (relative stereo) [d-6, d-cis-3-(4-hydroxyphenyl)-4-(4-hydroxy-3-methylphenyl)-8-methylchroman-7-ol] | ≤ 150 | 150 to 500 |  |  |  |  |  |  |  |  |  |  |  |  |  |  |  |  | IC50 (A2780): 150 to 500 nM; IC50 (PC3): 150 to 500 nM; IC50 (MDA-MB-468): ≤ 150 nM; IC50 (CALU3): 150 to 500 nM; IC50 (A549): 150 to 500 nM; IC50 (HepG2): ≤ 150 nM; IC50 (LNCaP): 150 to 500 nM; IC50 (A2058): ≤ 150 nM; IC50 (CP70): 150 to 500 nM; IC50 (DU145): 150 to 500 nM; IC50 (SK-Hep-1): ≤ 150 nM; IC50 (HuH-7): 150 to 500 nM; IC50 (NCI-H460): 150 to 500 nM; IC50 (COLO205): 1600 to 10000 nM
2 | COc1ccc(C2c3ccc(O)c(C)c3OCC2c2ccc(O)cc2)cc1C (stereo not drawn) [Compound 7, 3-(4-hydroxyphenyl)-4-(4-methoxy-3-methylphenyl)-8-methylchroman-7-ol] | 1600 to 10000 | 1600 to 10000 | 1600 to 10000 | 510 to 1500 | 1600 to 10000 | ≥ 10000 | 1600 to 10000 | 1600 to 10000 | 1600 to 10000 | 1600 to 10000 | 1600 to 10000 | 1600 to 10000 | 1600 to 10000 | 1600 to 10000 | 1600 to 10000 | 1600 to 10000 | 1600 to 10000 | ≥ 10000 | 
3 | Cc1cc(C2c3ccc(O)c(C)c3OCC2c2ccc(O)cc2)ccc1O (stereo not drawn) [Compound 6, 3-(4-hydroxyphenyl)-4-(4-hydroxy-3-methylphenyl)-8-methylchroman-7-ol] | 150 to 500 | 150 to 500 | 150 to 500 | ≤ 150 | 150 to 500 | 510 to 1500 | 150 to 500 | 150 to 500 | 510 to 1500 | 150 to 500 | 510 to 1500 | 150 to 500 | 510 to 1500 | 150 to 500 | 150 to 500 | 150 to 500 | 150 to 500 | 1600 to 10000 | 
4 | Cc1cc([C@H]2c3ccc(O)c(C)c3OC[C@H]2c2ccc(O)cc2)ccc1O (relative stereo) [l-6, l-cis-3-(4-hydroxyphenyl)-4-(4-hydroxy-3-methylphenyl)-8-methylchroman-7-ol] | ≥ 10000 | ≥ 10000 |  |  |  | ≥ 10000 |  |  |  |  |  |  |  |  |  |  |  |  | IC50 (A2780): ≥ 10000 nM; IC50 (SKBR-3): 1600 to 10000 nM; IC50 (PC3): ≥ 10000 nM; IC50 (MDA-MB-468): ≥ 10000 nM; IC50 (CALU3): ≥ 10000 nM; IC50 (A549): ≥ 10000 nM; IC50 (HepG2): ≥ 10000 nM; IC50 (LNCaP): ≥ 10000 nM; IC50 (A2058): ≥ 10000 nM; IC50 (CP70): ≥ 10000 nM; IC50 (DU145): ≥ 10000 nM; IC50 (SK-Hep-1): ≥ 10000 nM; IC50 (HuH-7): ≥ 10000 nM; IC50 (NCI-H460): ≥ 10000 nM; IC50 (COLO205): ≥ 10000 nM
5 | COc1ccc([C@@H]2c3ccc(O)c(C)c3OC[C@@H]2c2ccc(O)cc2)cc1C [l-7, l-cis-3-(4-hydroxyphenyl)-4-(4-methoxy-3-methylphenyl)-8-methylchroman-7-ol] | ≥ 10000 | ≥ 10000 | ≥ 10000 |  | ≥ 10000 |  | ≥ 10000 | ≥ 10000 | ≥ 10000 | ≥ 10000 | ≥ 10000 | ≥ 10000 | ≥ 10000 | ≥ 10000 | ≥ 10000 | ≥ 10000 | ≥ 10000 | ≥ 10000 | 
6 | COc1ccc([C@H]2c3ccc(O)c(C)c3OC[C@H]2c2ccc(O)cc2)cc1C [d-7, d-cis-3-(4-hydroxyphenyl)-4-(4-methoxy-3-methylphenyl)-8-methylchroman-7-ol] | 510 to 1500 | 1600 to 10000 | 510 to 1500 |  | 510 to 1500 |  | 150 to 500 | 1600 to 10000 | 1600 to 10000 | 510 to 1500 | 1600 to 10000 | 510 to 1500 | 510 to 1500 | 510 to 1500 | 1600 to 10000 | 510 to 1500 | 1600 to 10000 | ≥ 10000 | 
7 | Cc1c(O)ccc2c1OCC(c1ccc(O)cc1)C2c1ccc(O)cc1 (stereo not drawn) [Compound 5, 3-(4-hydroxyphenyl)-4-(4-hydroxyphenyl)-8-methylchroman-7-ol] | 150 to 500 | 150 to 500 | 150 to 500 | ≤ 150 | 150 to 500 | 150 to 500 | 150 to 500 | ≤ 150 | 150 to 500 | ≤ 150 | 150 to 500 | ≤ 150 | ≤ 150 | 150 to 500 | 150 to 500 | 150 to 500 | 150 to 500 | 1600 to 10000 | 
8 | Cc1c(O)ccc2c1OC[C@H](c1ccc(O)cc1)[C@@H]2c1ccc(O)cc1 [l-5, l-cis-3-(4-hydroxyphenyl)-4-(4-hydroxyphenyl)-8-methylchroman-7-ol] | ≥ 10000 | ≥ 10000 | ≥ 10000 | ≥ 10000 | ≥ 10000 | ≥ 10000 | ≥ 10000 | ≥ 10000 | ≥ 10000 | ≥ 10000 | ≥ 10000 | ≥ 10000 | ≥ 10000 | ≥ 10000 | ≥ 10000 | ≥ 10000 | ≥ 10000 | ≥ 10000 | 
